ChEMBL document CHEMBL4177608, “Design and synthesis of benzimidazole-based Rho kinase inhibitors for the treatment of glaucoma” (Bioorg Med Chem, 2017)
Values after ≈ are worked out from the molar mass of the structure shown.

Columns and labels:
[1] = 1-Octanol/water partition coefficient, log P of compound at 2 mg after 24 hrs by spectrophotometry based shake flask method; format: physicochemical
[2] = Antioxidant activity assessed as DPPH free radical scavenging activity at 5 ug/ml after 30 mins by spectrophotometric analysis; format: functional
[3] = Antioxidant activity assessed as DPPH free radical scavenging activity at 25 ug/ml after 30 mins by spectrophotometric analysis; format: functional
[4] = Antioxidant activity assessed as DPPH free radical scavenging activity at 50 ug/ml after 30 mins by spectrophotometric analysis; format: functional
[5] = Antioxidant activity assessed as DPPH free radical scavenging activity at 100 ug/ml after 30 mins by spectrophotometric analysis; format: functional
[6] = Antioxidant activity assessed as DPPH free radical scavenging activity at 150 ug/ml after 30 mins by spectrophotometric analysis; format: functional
[7] = Antioxidant activity assessed as DPPH free radical scavenging activity at 200 ug/ml after 30 mins by spectrophotometric analysis; format: functional
[8] = Antioxidant activity assessed as DPPH free radical scavenging activity after 30 mins by spectrophotometric analysis; format: functional
Rattus norvegicus [9] = species: Rattus norvegicus; assay: Reduction in intraocular pressure in Wistar rat model of dexamethasone-induced elevated IOP assessed as change in intraocular pressure at 1 % w/v after 0.5 hrs by tonometry (reference value: 0%); format: functional; parameters: scale not given: the % may be the effect or the level left
Rattus norvegicus [10] = species: Rattus norvegicus; assay: Reduction in intraocular pressure in Wistar rat model of dexamethasone-induced elevated IOP assessed as change in intraocular pressure at 1 % w/v after 1 hr by tonometry (reference value: 0%); format: functional; parameters: scale not given: the % may be the effect or the level left
Rattus norvegicus [11] = species: Rattus norvegicus; assay: Reduction in intraocular pressure in Wistar rat model of dexamethasone-induced elevated IOP assessed as change in intraocular pressure at 1 % w/v after 1.5 hrs by tonometry (reference value: 0%); format: functional; parameters: scale not given: the % may be the effect or the level left
Rattus norvegicus [12] = species: Rattus norvegicus; assay: Reduction in intraocular pressure in Wistar rat model of dexamethasone-induced elevated IOP assessed as change in intraocular pressure at 1 % w/v after 2 hrs by tonometry (reference value: 0%); format: functional; parameters: scale not given: the % may be the effect or the level left
Rattus norvegicus [13] = species: Rattus norvegicus; assay: Reduction in intraocular pressure in Wistar rat model of dexamethasone-induced elevated IOP assessed as change in intraocular pressure at 1 % w/v after 2.5 hrs by tonometry (reference value: 0%); format: functional; parameters: scale not given: the % may be the effect or the level left
Rattus norvegicus [14] = species: Rattus norvegicus; assay: Reduction in intraocular pressure in Wistar rat model of dexamethasone-induced elevated IOP assessed as change in intraocular pressure at 1 % w/v after 3 hrs by tonometry (reference value: 0%); format: functional; parameters: scale not given: the % may be the effect or the level left
Rattus norvegicus [15] = species: Rattus norvegicus; assay: Reduction in intraocular pressure in Wistar rat model of dexamethasone-induced elevated IOP assessed as change in intraocular pressure at 1 % w/v after 4 hrs by tonometry (reference value: 0%); format: functional; parameters: scale not given: the % may be the effect or the level left
Rattus norvegicus [16] = species: Rattus norvegicus; assay: Reduction in intraocular pressure in Wistar rat model of dexamethasone-induced elevated IOP assessed as change in intraocular pressure at 1 % w/v after 5 hrs by tonometry (reference value: 0%); format: functional; parameters: scale not given: the % may be the effect or the level left
Rattus norvegicus [17] = species: Rattus norvegicus; assay: Reduction in intraocular pressure in Wistar rat model of dexamethasone-induced elevated IOP assessed as change in intraocular pressure at 1 % w/v after 6 hrs by tonometry (reference value: 0%); format: functional; parameters: scale not given: the % may be the effect or the level left
Rattus norvegicus [18] = species: Rattus norvegicus; assay: Reduction in intraocular pressure in Wistar rat model of dexamethasone-induced elevated IOP assessed as change in intraocular pressure in contralateral eye at 1 % w/v after 0.5 hrs by tonometry (reference value: 0%); format: ADME, organism-based; parameters: scale not given: the % may be the effect or the level left; settings: in vivo, topical_or_ocular
Rattus norvegicus [19] = species: Rattus norvegicus; assay: Reduction in intraocular pressure in Wistar rat model of dexamethasone-induced elevated IOP assessed as change in intraocular pressure in contralateral eye at 1 % w/v after 1 hr by tonometry (reference value: 0%); format: ADME, organism-based; parameters: scale not given: the % may be the effect or the level left; settings: in vivo, topical_or_ocular
Rattus norvegicus [20] = species: Rattus norvegicus; assay: Reduction in intraocular pressure in Wistar rat model of dexamethasone-induced elevated IOP assessed as change in intraocular pressure in contralateral eye at 1 % w/v after 1.5 hrs by tonometry (reference value: 0%); format: ADME, organism-based; parameters: scale not given: the % may be the effect or the level left; settings: in vivo
Rattus norvegicus [21] = species: Rattus norvegicus; assay: Reduction in intraocular pressure in Wistar rat model of dexamethasone-induced elevated IOP assessed as change in intraocular pressure in contralateral eye at 1 % w/v after 2 hrs by tonometry (reference value: 0%); format: ADME, organism-based; parameters: scale not given: the % may be the effect or the level left; settings: in vivo
Rattus norvegicus [22] = species: Rattus norvegicus; assay: Reduction in intraocular pressure in Wistar rat model of dexamethasone-induced elevated IOP assessed as change in intraocular pressure in contralateral eye at 1 % w/v after 2.5 hrs by tonometry (reference value: 0%); format: ADME, organism-based; parameters: scale not given: the % may be the effect or the level left; settings: in vivo
Rattus norvegicus [23] = species: Rattus norvegicus; assay: Reduction in intraocular pressure in Wistar rat model of dexamethasone-induced elevated IOP assessed as change in intraocular pressure in contralateral eye at 1 % w/v after 3 hrs by tonometry (reference value: 0%); format: ADME, organism-based; parameters: scale not given: the % may be the effect or the level left; settings: in vivo
Rattus norvegicus [24] = species: Rattus norvegicus; assay: Reduction in intraocular pressure in Wistar rat model of dexamethasone-induced elevated IOP assessed as change in intraocular pressure in contralateral eye at 1 % w/v after 4 hrs by tonometry (reference value: 0%); format: ADME, organism-based; parameters: scale not given: the % may be the effect or the level left; settings: in vivo
Rattus norvegicus [25] = species: Rattus norvegicus; assay: Reduction in intraocular pressure in Wistar rat model of dexamethasone-induced elevated IOP assessed as change in intraocular pressure in contralateral eye at 1 % w/v after 5 hrs by tonometry (reference value: 0%); format: ADME, organism-based; parameters: scale not given: the % may be the effect or the level left; settings: in vivo
Rattus norvegicus [26] = species: Rattus norvegicus; assay: Reduction in intraocular pressure in Wistar rat model of dexamethasone-induced elevated IOP assessed as change in intraocular pressure in contralateral eye at 1 % w/v after 6 hrs by tonometry (reference value: 0%); format: ADME, organism-based; parameters: scale not given: the % may be the effect or the level left; settings: in vivo
Rattus norvegicus [27] = species: Rattus norvegicus; assay: Reduction in intraocular pressure in Wistar rat model of dexamethasone-induced elevated IOP assessed as onset time for reduction in intraocular pressure at 1 % w/v by tonometry; format: functional
Rattus norvegicus [28] = species: Rattus norvegicus; assay: Reduction in intraocular pressure in Wistar rat model of dexamethasone-induced elevated IOP assessed as peak effect time for reduction in intraocular pressure at 1 % w/v by tonometry; format: functional, organism-based
Rattus norvegicus [29] = species: Rattus norvegicus; assay: Reduction in intraocular pressure in Wistar rat model of dexamethasone-induced elevated IOP assessed as reduction in intraocular pressure at peak effect time at 1 % w/v by tonometry; format: functional; parameters: scale not given: the % may be the effect or the level left

Structure (SMILES)	logP at 24 h [1]	Activity [2] [%]	Activity [3] [%]	Activity [4] [%]	Activity [5] [%]	Activity [6] [%]	Activity [7] [%]	IC50 [8] [µg/mL]	Activity (Rattus norvegicus [9]) [%]	Activity (Rattus norvegicus [10]) [%]	Activity (Rattus norvegicus [11]) [%]	Activity (Rattus norvegicus [12]) [%]	Activity (Rattus norvegicus [13]) [%]	Activity (Rattus norvegicus [14]) [%]	Activity (Rattus norvegicus [15]) [%]	Activity (Rattus norvegicus [16]) [%]	Activity (Rattus norvegicus [17]) [%]	Activity (Rattus norvegicus [18]) [%]	Activity (Rattus norvegicus [19]) [%]	Activity (Rattus norvegicus [20]) [%]	also measured
O=C(CN1CCN(c2ccccc2F)CC1)Nc1nc2ccccc2[nH]1	0.94	11.6	18.8	37.4	47.7	56.6	70.6	121.33 (≈ 343 µM)	2.82	6.5	9.77	12.47	13.5	11.7	7.52	0.95	0.17	0.9	2.02	3.2	Activity (Rattus norvegicus [21]): 4.07%; Activity (Rattus norvegicus [22]): 1.27%; Activity (Rattus norvegicus [23]): 0.87%; Activity (Rattus norvegicus [24]): 0%; Activity (Rattus norvegicus [25]): 0%; Activity (Rattus norvegicus [26]): 0%; Time (Rattus norvegicus [27]): 0.5 h; Tmax (Rattus norvegicus [28]): 2.5 h; Activity (Rattus norvegicus [29]): 46.61%
O=C(CN1CCN(c2ccc([N+](=O)[O-])cc2)CC1)Nc1nc2ccccc2[nH]1	1.94	16.1	33.9	44.8	51.7	64.9	76.7	95.49 (≈ 251 µM)	3.33	5.85	7.68	11.88	16	10.52	7.82	4.75	1.2	0.83	1.2	3.5	Activity (Rattus norvegicus [21]): 4.87%; Activity (Rattus norvegicus [22]): 5.23%; Activity (Rattus norvegicus [23]): 4.2%; Activity (Rattus norvegicus [24]): 1.6%; Activity (Rattus norvegicus [25]): 0%; Activity (Rattus norvegicus [26]): 0%; Time (Rattus norvegicus [27]): 0.5 h; Tmax (Rattus norvegicus [28]): 2.5 h; Activity (Rattus norvegicus [29]): 51.56%
O=C1O[C@H]([C@@H](O)CO)C(O)=C1O [ASCORBIC ACID]	–	39.5	54.9	62.5	79.4	92.9	97.9	15.74 (≈ 89.4 µM)	–	–	–	–	–	–	–	–	–	–	–	–	–
Cl.O=S(=O)(c1cccc2cnccc12)N1CCCNCC1 [FASUDIL HYDROCHLORIDE]	1.73	–	–	–	–	–	–	–	4.62	5.4	10.17	16.67	9.71	9	7.8	3.42	0.65	0.97	1.95	3.3	Activity (Rattus norvegicus [21]): 5.57%; Activity (Rattus norvegicus [22]): 4.62%; Activity (Rattus norvegicus [23]): 1.85%; Activity (Rattus norvegicus [24]): 0.3%; Activity (Rattus norvegicus [25]): 0%; Activity (Rattus norvegicus [26]): 0%; Time (Rattus norvegicus [27]): 0.5 h; Tmax (Rattus norvegicus [28]): 2 h; Activity (Rattus norvegicus [29]): 54.84%
